For orientation: IC50 means the point on the concentration scale where inhibition reaches its midpoint. In general, solubility refers to how much of the substance goes into solution per volume. What is called efflux ratio is a quotient of directional permeabilities that is used to spot active efflux.

The subject of one series is Du 145. Kind of series: Inhibition of tumor cells proliferation (CellTiter Glo). It counts as cell-based. As to conditions: Homo sapiens, 72 hours. As to the method:
Inhibition of the proliferation of tumor cells was investigated in vitro in several tumor cell lines. Cells of the desired tumor cell line were plated at 2×10^5 cells/ml in 96 well plates. Twice the indicated concentrations of the compounds of the invention were added to cells the following day in an equal volume of media. 72 hours later, cells were lysed and subjected to ATP determination using the CellTiter Glo-Luminescent Cell Viability Assay kit (Promega, Madison, Wis.). Experiments were done in triplicate. Results for the inhibition of cells proliferation are reported as IC50 (the concentration leading to a 50% inhibition of proliferation of the cell population) and are listed in Table 6. FIGS. 3 and 4 show bar graphs comparing the IC50s of specific embodiments of compounds of the invention across multiple tumor cell lines.

The target in series [1] is T1, MIF (Homo sapiens, UniProt P14174).
T1 construct: the enzymatic activity of MIF present in cell lysates; endogenous in cells
T1 sequence (P14174 2-115 limits assumed): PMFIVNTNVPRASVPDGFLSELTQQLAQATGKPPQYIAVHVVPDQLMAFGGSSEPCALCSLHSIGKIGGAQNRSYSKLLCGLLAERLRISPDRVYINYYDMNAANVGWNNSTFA
Briefly: MIF cell lysate enzymatic inhibition. As to conditions: cell lysates. Type of series: biochemical. As to the method: Normal or transformed cell lysates can be used to determine the concentration inhibiting the enzymatic activity of MIF present in cell lysates. Cells are cultured in the appropriate media to the required number of cells, collected, and lysed. Compounds to be characterized are solubilized in DMSO and serial dilutions are performed in order to obtain a range of concentrations including complete and no quantifiable inhibition.

The nature of series [2]: Solubility in varying solvents. As to conditions: 21 °C, 20-22° C. It counts as physicochemical.
The next series concerns LOX-IMV1 tumor cell line. Briefly: Inhibition of cell migration (Oris Cell Migration Assay). The conditions noted are these: 72 hrs, even at low concentrations (0.03 μM), FIG. 7. Type of series: cell-based. As to the method: The LOX-IMV1 tumor cell line was used to determine the inhibition of cell migration using the Oris Cell Migration Assay kit (Promega, Mich.). Briefly, adherent cells were seeded into each well of the kit according to kit instructions. Concentrations of cells in the migration zone were determined to calculate IC50 values. Prior to the migration assay, cell proliferation IC50s were determined to differentiate between inhibition of proliferation and migration. […] A slightly modified method was also used to determine the inhibition of invasion.

In series [3] the target is T2, MIF (Mus musculus, UniProt P34884).
T2 construct: from tissue; host or cells: mouse liver (A7); liver, lung and brain of C57BL6 mice (A20)
Kind of series: Oral bioavailability: ex vivo MIF enzymatic activity in liver, brain and lung after IP and PO dosing. More on the design: species or system C57BL6 mice. As to the method: The compounds were administered orally (PO) and intraperitoneally (IP) to healthy animals. The inhibition of the MIF liver enzymatic activity determined ex vivo following IP and PO dosing is similar, indicating high oral bioavailability. Furthermore, brain and lung tissues were collected and processed to determine MIF enzymatic activity in these organs. […] Inhibition of MIF enzyme was determined […] following dosing of MIF-002 at 40 mg/kg once a day for three days, both IP and PO (normal C57BL6 mice, n=3). Tissues were collected at sacrifice and processed. Liver, lung, and brain tissues were collected, processed, and used for the determination of MIF enzyme activity. Values are expressed as a percentage calculated using DMSO as control (no inhibition).
Two additional compounds were tested, MIF-035 and MIF-041.

In a further series the test system is p53. Kind of series: p53 up regulation, p53 luciferase assay. It counts as cell-based. As to conditions: 10 μM; FIG. 5. As to the method: The up regulation of p53 was determined using a commercially available p53 luciferase assay kit. 1×10^5 cells/ml were plated in a 24 well plate and allowed to adhere overnight. MIF antagonists were added to the cells at the indicated concentrations for 16 hours and transiently co-transfected with 0.125 μg/well of p53-responsive luciferase promoter plasmid (Promega, Madison, Wis.) together with 0.0125 μg/well Renilla pRL-null plasmid (Promega) using Lipofectamine (Invitrogen) transfection reagent. After 24 hrs, Firefly and Renilla luciferase activities were measured by the Dual Luciferase Reporter Assay System (Promega, Madison, Wis.) on a TD-20/20 luminometer (Turner Designs).

The subject of another series is Caco-2 monolayers. Kind of series: Caco-2 cell permeability and transport. Set-up: Caco-2 Permeability Papp B-A / Caco-2 Permeability Papp A-B: unit not given here. It counts as in vitro ADME. As to the method: (§1) Cell permeability and transport mechanisms in Caco-2 and MDR1-MDCK monolayers experiments were performed in triplicate in the apical-to-basolateral and basolateral-to-apical direction using […]® wells containing either Caco-2 or MDR1-MDCK monolayers. A modified Hanks buffer pH 7.4 was used in both reservoir and receiver wells with the addition of 1% BSA in the receiver side. Confluent monolayers were used and their integrity was verified using reference compounds (Atenolol as a low permeability reference compound and Propanolol as a high permeability reference compound). A sample in the basolateral and apical sides was taken after 2 hours and the concentration measured by LC/MS-MS.
(In general: Passage across Caco-2 layers is used to estimate intestinal permeability.)

Series [4] in a line: Caco-2 cell permeability and transport. Type of series: in vitro ADME. Set-up: Caco-2 Permeability Papp B-A / Caco-2 Permeability Papp A-B: unit not given here. As to conditions: human, Caco-2, pH 7.4. As to the method: as §1
Series [5] concerns Chick Chorioallantoic Membrane (CAM). Briefly: CAM assay with matrigel plugs. It counts as in vivo. As to the method:
8 groups with 10 embryos in each group were used in the experiment described below. Fresh fertile eggs were incubated for 3 days in a standard egg incubator at 37° C. for 3 days. On Day 3, eggs were cracked under sterile conditions and embryos were placed into 20×100 mm plastic plates and cultivated at 37° C. in an embryo incubator with a water reservoir on the bottom shelf. Air was continuously bubbled into the water reservoir using a small pump so that the humidity in the incubator is kept constant. On Day 6, a sterile silicon “o” ring was placed on each CAM and test compound dissolved in 0.5% methylcellulose was placed into each “o” ring in a sterile hood. Paclitaxel was used as a positive control. Embryos were returned to the incubator after addition of test material. Control embryos received 10 μL of vehicle alone. On Day 8, embryos were removed from the incubator and kept at room temperature while blood vessel density were determined under each “o” ring using an image capturing system at a magnification of 160×. The blood vessel density was measured using an angiogenesis scoring system in that arithmetic numbers 0 to 5 (or exponential numbers 1 to 32) are used to indicate number of blood vessels present at the treatment sites on the CAM. Number 5 represents the highest density and 0 represents no angiogenesis. The percent of inhibition at each dosing site was calculated using the score recorded for that site divided by the mean score obtained from the appropriate control samples for each individual experiment. The percent of inhibition for each dose of a given compound was calculated by pooling all results obtained for that dose from 8-10 embryos.
Another experiment was performed using a protocol similar to the one described above but using matrigel plugs instead of o ring to deliver the test material to the CAM. Results are summarized in Table 9 below and show a statistically significant inhibition of angiogenesis at the high concentrations of test material.

Series [6] in a line: Microsomal stability in human liver microsomes. It counts as in vitro ADME. As to the method:
Stability in human liver microsomes was tested over […] at 37° C. using pooled mixed gender human liver microsomes. Liver microsomes were prepared at 1.0 mg/ml of microsomal protein in a 100 mM potassium phosphate pH 7.4 buffer with 1 mM NADPH. The media was incubated at 37° C. with the compound in solution in DMSO. The concentration of the compound was followed by LC/MS-MS as a function of time. Samples were assayed at t=0, 30, 60 and 120 minutes. Testosterone was used as a positive control. The same experiment was performed with mouse liver microsomes instead of human liver microsomes.
(Liver microsomes are a subcellular fraction often used to study metabolism.)

The nature of series [7]: Microsomal stability in human liver microsomes. As to conditions: 15 min; 37° C.; 1 mM NADPH. Type of series: in vitro ADME.
Series [8] deals with primary human T lymphocytes. Briefly: Anti-CD3 induced T lymphocyte activation/proliferation (flow cytometry). Type of series: cell-based. As to conditions: 25 μM. As to the method:
In order to assess the ability of MIF antagonists to disrupt autoimmune-associated T cell activation, primary human T lymphocytes were prepared using standard Ficoll-gradient preparations. 1×10^6 lymphocytes/ml were resuspended in RPMI/10% FCS and plated onto anti-CD3 antibodies previously immobilized onto tissue culture plates. Control, vehicle control (0.1% DMSO), 25 μM 4-IPP or 25 μM ACT-003 were added to cells and allowed to incubate for 48 hours. Cells were lifted, washed and stained with anti-CD4 or anti-CD8 antibodies and then analyzed by flow cytometry.
To validate the effects of MIF antagonists on T lymphocyte activation, experiments were set up exactly as described above and, 48 hours later, treated and untreated lymphocytes were stained with an anti-CD25 antibody. CD25 is also known as the high affinity IL-2 receptor—a very well characterized and frequently marker of T lymphocyte activation.
In order to investigate the relative kinetics of when 4-IPP and ACT-003 are acting in blocking T lymphocyte activation, we repeated the experiment described above but harvested lymphocytes only 16 hours after anti-CD3 plating. At this early time point during T lymphocyte activation, CD69 is found to be expressed and is usually considered to be an “early marker” of lymphocyte activation.
Finally, to confirm that proliferation of CD4+ and CD8+ T lymphocytes is blocked by 4-IPP-based MIF antagonists, we repeated the experiment as described above, added labeled-BrdU to cells, stained with either labeled anti-CD4 or anti-CD8 antibodies and then assessed relative CD4/CD8 and BrdU labeling in each treatment group.
For orientation: In flow cytometry, cells or beads pass a laser one at a time.

Series [9] concerns the target T2, MIF. Briefly: MIF liver lysates enzymatic activity ex vivo (L-dopachrome tautomerase). The conditions noted are these: mice; IP 1 mg in corn oil every day for 3 days; livers 6 hours after last injection; FIG. 1. As to the method: This experiment, using an ex-vivo approach and the tautomeric reaction of L-dopachrom, was designed to ascertain the level of inhibition of MIF following administration of the compounds of this invention via oral, IV, IP or any other route of administration. Mice were used in the example illustrated below, but other animals could be used as well. Groups of 3 mice were administered IP 1 mg of 4-IPP and ACT-002 resuspended in 100 μl of corn oil every day for 3 days. Mice were sacrificed 6 hours after the last injection and livers were harvested. ˜1 gram pieces of liver were lysed in PBS containing 1 mM NaVO4, 2 mM NaF and a protease inhibitor cocktail (Roche Biochemical, Indianapolis, Ind.) using dounce-homogenization on ice. 500 μg of liver lysates were added to a final volume of 700 μl PBS in plastic cuvettes. 4 mM L-3, 4-dihydroxyphenylalanine methyl ester and 8 mM sodium periodate (Sigma-Aldrich) were combined in a 3:2 ratio to form L-dopachrome methyl ester. 300 μL of L-dopachrome methyl ester was then immediately added to the cuvettes; the OD475 nm was measured 2 min and 4 min after addition of the L-dopachrome.

≈ marks a conversion by molar mass, not a printed value. Some results are limits rather than exact numbers.

On to `NC(=O)c1cccc(-c2cc(I)ncn2)c1` [ACT-MIF-035, 4-Iodo-6-(3-aminocarbonylphenyl)pyrimidine], for which the values for the half-inhibitory concentration (IC50) with Du 145 and against MIF [1] were 21700 nM and 185 nM, respectively. Further, the solubility was 10000 µg/mL (≈ 30.8 mM) in [2] (aqueous with cosolvent or surfactant or cyclodextrin, Ethanol/Tween 80); below 6000 µg/mL in [2] (oil or lipid, Corn oil); 1400 µg/mL (≈ 4.31 mM) in series [2] (organic solvent or mixture, Ethanol); 13300 µg/mL (≈ 40.9 mM) in [2] (organic solvent or mixture, PEG-300); 2700 µg/mL (≈ 8.3 mM) in [2] (organic solvent or mixture, Propane-diol). For the same compound, the “Inhibition of cell migration” value with LOX-IMV1 tumor cell line is “significant inhibition of migration”. On MIF [3] (judged from ex vivo MIF inhibition after IP and PO dosing), the Oral bioavailability entry is listed as “orally bioavailable”. For the same compound, at MIF [3] (judged from ex vivo MIF inhibition in brain), the “Crossing of the blood brain barrier” value was “crossed the blood brain barrier”. The p53 regulation result with p53 is recorded as “implicated in p53 regulation”. Further, in the series with Caco-2 monolayers, the “Caco-2 Permeability Class” value was “High”. The “Caco-2 Permeability Papp A-B” value in the series with Caco-2 monolayers (apical-to-basolateral, pH 7.4, 2 hours) is given as 3.1. Also, the “Caco-2 Permeability Papp B-A” value in the series on Caco-2 monolayers (basolateral-to-apical, pH 7.4, 2 hours) was 3.3. For the same compound, the efflux ratio at 2 h in series [4] worked out at 1.1. Besides, the “Blood Vessel Counts” value amounted to 28.3 ± 1.7 in series [5] (0.3 nM per CAM), 27.3 ± 2.4 in series [5] (3 nM per CAM) and 26.7 ± 1.9 in [5] (30 nM per CAM). Further, the “Metabolic Stability in Human Microsomes % Remaining” value in series [6] (both, human, microsomes, 0 h, pH 7.4) came to 100%; in series [6] (both, human, microsomes, 1 h, pH 7.4) it was 92%.
Consider `C[C@]12CC[C@H]3[C@@H](CCC4=CC(=O)CC[C@@]43C)[C@@H]1CC[C@@H]2O` [Testosterone, reference compound], for which the “Metabolic Stability in Human Microsomes % Remaining” value in [7] worked out at 56%; in [6] (0 min, 37° C., 1 mM NADPH), 100%.
At MIF [1], `Ic1cc(-c2ccccc2)ncn1` [4-IPP, 4-iodo-6-phenylpyrimidine, reference compound] gave an IC50 above 2000 nM. Besides, the CD69 expression entry in [8] (16 hours, FIGS. 17 and 18) is “only a marginal effect on CD69 expression”. Moreover, the “CD4 and CD8 T lymphocytes after anti-CD3 activation” value in series [8] (48 hours, FIGS. 13 and 14) was “significantly fewer CD4 and CD8 T lymphocytes”. Also, in series [8] (48 hours, FIGS. 15 and 16), the “Anti-CD3-induced CD25 expression” value is listed as “almost completely blocked the anti-CD3-induced CD25 expression”. Besides, in series [8] (48 hours, FIGS. 19 and 20), the “BrdU labeling of CD8+ and CD4+ T lymphocytes (proliferation)” value is “almost completely blocked BrdU labeling in both CD8+ and CD4+ T lymphocytes”. Further, the “MIF liver enzyme inhibition” value on MIF [9] is reported as “significant in vivo inhibition of MIF”.
